Earlier results as cited in patent publication US12201623B1, “Composition and method for preventing long-term COVID-19 morbidity” (priority 2021, dated 2025).

System: SARS-COV-2
Conditions: peripheral blood monocytes purified from healthy volunteers

Row | Compound | SARS-COV-2 replication
1 | CC(=O)N[C@@H](CS)C(=O)O [NAC] | suppressed
2 | COC1=C(OC)C(=O)C(CCCCCCCCCC[P+](c2ccccc2)(c2ccccc2)c2ccccc2)=C(C)C1=O [MitoQ] | suppressed
